Source: patent publication US20230105108A1, “COMPOUNDS FOR THE TREATMENT OF BACTERIAL INFECTIONS AND POTENTIATION OF ANTIBIOTICS” (GEORGIA STATE UNIVERSITY RESEARCH FOUNDATION, INC., priority 2019, published 2023)
pIC50: −log10 of the molar value. Counter-ions that a name gives are not always drawn. Like-named read-outs stand apart in the source and are kept apart here.

Legend:
Format in all cases: cell-based
E. coli (ATCC 25922) = assay: Antibiotic uptake in the presence and absence of MD-100 (HPLC); conditions: E. coli lysate, presence vs absence of 25 μg/ml MD-100
Protocol: Direct comparison of the antibiotic uptake in the presence and absence of MD-100 through HPLC study. E. coli (ATCC 25922) was cultured in Mueller Hinton II cation-adjusted broth for overnight at 37° C. to reach a density of OD600 of 0.8 to 1.0. To 20 ml fresh Mueller Hinton II cation-adjusted broth was added 50 μl E. coli stock, 200 μl 5 mg/ml O—CH3 novobiocin and 100 μl 10 mM MD-100. In the other group, the same amount of E. coli stock, O—CH3 novobiocin was used in the absence of MD-100. Then E. coli was incubated for 20 h at 37° C. with continuous shaking of 200 rpm. After, the E. coli suspension was centrifuged at 3000 g for 10 min and the culture media was removed to obtain bacteria pallet. The pallets from the two groups was re-suspended in PBS to reach the same OD600 of 2.0. To this E. coli suspension was spiked with 10 μM internal standard. 1 ml E. coli from each group in PBS was lysed by sonication on ice for 15 min, followed by adding 2 ml MeOH, the mixture was then centrifuged at 3000 g for 5 min and the supernatant was analyzed by HPLC. 20 μl of each sample was injected into Shimadzu Prominence UFLC (column: Waters C18, […], 4.6×100 mm, injection loop volume: 20 μl). The mobile phase was acetonitrile (ACN)/H2O (with 0.05% trifluoroacetic acid in the aqueous) with ratios defined as: 20%˜55% ACN, 0˜10 min; 55%˜65% ACN, 10˜20 min; 65%˜20% ACN, 20˜25 min. […]

[1] = IC50 of Table 7 (cell line not stated)
B. subtilis = assay: MIC determination and sensitization fold on B. subtilis; conditions: for Sensitization fold: erythromycin; for MIC: Bacillus subtilis
[2] = system: NDM-1 expressing E. coli strain; assay: microbe, parasite or virus in culture; conditions: Escherichia coli; NDM-1 expressing E. coli; read-out: MIC of MD-124
[3] = system: mcr-1 over-expressing E. coli strains; assay: microbe, parasite or virus in culture
E. coli = assay: Bacterial resistance frequency study
Protocol: Bacterial resistance frequency study: E. coli was grown overnight in Mueller Hinton II cation-adjusted broth medium and concentrated to ˜5×10^9 CFUs/ml in Mueller Hinton II cation-adjusted broth. […] Then the plates were incubated at 37° C. for 48 h. Then the colonies formed on the plate were recorded and resistant frequency was calculated.

Structure (SMILES)	relative intracellular concentration of O-methyl novobiocin (E. coli (ATCC 25922))	pIC50 [1]	growth density compared with the control (no treatment) group (B. subtilis; B. subtilis, 5.5 μg/ml alone, no antibiotic) [%]	Sensitization fold (B. subtilis; B. subtilis, compound at 6 μM) [fold at 6 μM.]	Sensitization fold (B. subtilis; B. subtilis, compound at 12 μM)	MIC (B. subtilis; 24 h, B. subtilis, compound alone, read-out: MIC) [µM]	MIC (B. subtilis; wild type B. subtilis, read-out: MIC of DB2560) [µg/mL]	MIC [2] [µg/mL]	MIC ([3]; Escherichia coli, mcr-1 over-expression E. coli, read-out: MIC of MD-124) [µg/mL]	MIC of Rif with 3 μg/ml MD-124 ([3]; strain mcr-1 A)	Sensitization fold with 3 μg/ml MD-124 ([3]; strain mcr-1 A, rifampicin, dihydrochloride) [fold]	MIC of Rif with 3 μg/ml MD-124 ([3]; strain mcr-1 B)	MIC of Rif with 5 μg/ml MD-124 ([3]; strain mcr-1 B)	Sensitization fold with 3 μg/ml MD-124 ([3]; strain mcr-1 B, rifampicin) [fold]	Sensitization fold with 5 μg/ml MD-124 ([3]; strain mcr-1 B, rifampicin) [fold]	resistant frequency towards MD-124 (E. coli; 10 μg/ml MD-124, 2.7×10^10 CFUs tested)	lower resistance frequency towards MD-124/antibiotic combination than the antibiotic itself (E. coli; 10 μg/ml MD-124, antibiotic 2 to 7-fold of MIC)
Cc1cc(COc2ccc(C(=N)N)cc2)cc(COc2ccc(C(=N)N)cc2)c1 [MD-100, 4,4′-(((5-methyl-1,3-phenylene)bis(methylene))bis(oxy))dibenzimidamide dihydrochloride]	greatly increased	4.00	80	8	32-fold at 12 μM;	50	50	–	–	–	–	–	–	–	–	–	–
N=C(N)c1ccc(COc2cc(OCc3ccc(C(=N)N)cc3)cc(C(F)(F)F)c2)cc1 [MD-124, 4,4′-(((5-(trifluoromethyl)-1,3-phenylene)bis(oxy))bis(methylene)) dibenzimidamide dihydrochloride]	–	–	–	–	–	–	–	50	12.5	0.32	16	1.25	0.16	4	32	< 3.7×10^−11	2 to 3 orders of magnitude
